According to the NIST ThermoML archive (doi:10.1016/j.jct.2006.11.003):
± gives the expanded uncertainty stated by the source.

Assays:
[1] = xn = mol fraction of the nth substance listed; conditions: 101 kPa, Liquid, x2 = 0
[2] = 101 kPa, Liquid
[3] = refractive index (Na D-line) (dimensionless); conditions: 298.15 K; 101.33 kPa; Liquid; Standard Abbe refractometry

SMILES: CN1CCCC1=O [N-methylpyrrolidone] + Cc1ccccc1C
- mass density ([1]; 293.15 K): 1032.66 ± 0.48 kg/m3
- mass density ([1]; 303.15 K): 1023.42 ± 0.44 kg/m3
- mass density ([1]; 313.15 K): 1014.27 ± 0.4 kg/m3
- mass density ([1]; 323.15 K): 1005.62 ± 0.37 kg/m3
- mass density ([1]; 333.15 K): 996.28 ± 0.36 kg/m3
- mass density ([1]; 343.15 K): 987.39 ± 0.4 kg/m3
- mass density ([1]; 353.15 K): 978.62 ± 0.43 kg/m3

SMILES: Cc1cccc(C)c1 [1,3-dimethylbenzene]
- mass density ([2]; 293.15 K): 864.31 ± 1.3 kg/m3
- mass density ([2]; 298.15 K): 859.83 ± 1.3 kg/m3
- mass density ([2]; 303.15 K): 855.64 ± 1.3 kg/m3
- mass density ([2]; 313.15 K): 846.9 ± 1.3 kg/m3
- mass density ([2]; 323.15 K): 838.09 ± 1.3 kg/m3
- mass density ([2]; 333.15 K): 829.22 ± 1.3 kg/m3
- mass density ([2]; 343.15 K): 820.29 ± 1.4 kg/m3
- mass density ([2]; 353.15 K): 811.29 ± 1.4 kg/m3
- refractive index [3]: 1.4973 ± 0.0008

SMILES: Cc1ccc(C)cc1 [1,4-dimethylbenzene]
- mass density ([2]; 293.15 K): 860.95 ± 0.83 kg/m3
- mass density ([2]; 298.15 K): 856.58 ± 0.84 kg/m3
- mass density ([2]; 303.15 K): 852.3 ± 0.85 kg/m3
- mass density ([2]; 323.15 K): 834.76 ± 0.9 kg/m3
- mass density ([2]; 333.15 K): 825.86 ± 1.2 kg/m3
- mass density ([2]; 343.15 K): 816.87 ± 0.95 kg/m3
- mass density ([2]; 353.15 K): 807.81 ± 0.98 kg/m3
- refractive index [3]: 1.4958 ± 0.0008

SMILES: CN1CCCC1=O [N-methylpyrrolidone] + Cc1cccc(C)c1
- mass density ([1]; 293.15 K): 1032.66 ± 0.48 kg/m3
- mass density ([1]; 303.15 K): 1023.42 ± 0.44 kg/m3
- mass density ([1]; 313.15 K): 1014.27 ± 0.4 kg/m3
- mass density ([1]; 323.15 K): 1005.62 ± 0.37 kg/m3
- mass density ([1]; 333.15 K): 996.28 ± 0.36 kg/m3
- mass density ([1]; 343.15 K): 987.39 ± 0.4 kg/m3
- mass density ([1]; 353.15 K): 978.62 ± 0.43 kg/m3

SMILES: CN1CCCC1=O [N-methylpyrrolidone]
- mass density ([2]; 293.15 K): 1032.66 ± 0.48 kg/m3
- mass density ([2]; 298.15 K): 1028.25 ± 0.46 kg/m3
- mass density ([2]; 303.15 K): 1023.42 ± 0.44 kg/m3
- mass density ([2]; 313.15 K): 1014.27 ± 0.4 kg/m3
- mass density ([2]; 323.15 K): 1005.62 ± 0.37 kg/m3
- mass density ([2]; 333.15 K): 996.28 ± 0.36 kg/m3
- mass density ([2]; 343.15 K): 987.39 ± 0.4 kg/m3
- mass density ([2]; 353.15 K): 978.62 ± 0.43 kg/m3
- refractive index [3]: 1.4677 ± 0.0007

SMILES: CN1CCCC1=O [N-methylpyrrolidone] + Cc1ccc(C)cc1
- mass density ([1]; 293.15 K): 1032.66 ± 0.48 kg/m3
- mass density ([1]; 303.15 K): 1023.42 ± 0.44 kg/m3
- mass density ([1]; 313.15 K): 1014.27 ± 0.4 kg/m3
- mass density ([1]; 323.15 K): 1005.62 ± 0.37 kg/m3
- mass density ([1]; 333.15 K): 996.28 ± 0.36 kg/m3
- mass density ([1]; 343.15 K): 987.39 ± 0.4 kg/m3
- mass density ([1]; 353.15 K): 978.62 ± 0.43 kg/m3

SMILES: Cc1ccccc1C [1,2-dimethylbenzene]
- mass density ([2]; 293.15 K): 879.84 ± 0.64 kg/m3
- mass density ([2]; 298.15 K): 875.73 ± 0.65 kg/m3
- mass density ([2]; 303.15 K): 871.48 ± 0.66 kg/m3
- mass density ([2]; 313.15 K): 863.03 ± 0.69 kg/m3
- mass density ([2]; 323.15 K): 854.51 ± 0.72 kg/m3
- mass density ([2]; 333.15 K): 845.91 ± 0.74 kg/m3
- mass density ([2]; 343.15 K): 837.23 ± 0.77 kg/m3
- mass density ([2]; 353.15 K): 828.47 ± 0.8 kg/m3
- refractive index [3]: 1.5057 ± 0.0007
